Measured values from US20260193295A1, “CILAGICIN COMPOUNDS AND METHODS OF USE THEREOF” (priority 2022, published 2026).
Converted amounts (≈) assume the structure as drawn. Positions of bridges follow the written chain, without caps; N, C: chain ends. Non-standard residues stand in square brackets, D forms with d. Residues, ends and D or L forms follow the SMILES beside them. *: point of attachment. Myristoyl = CCCCCCCCCCCCCC(=O)*; dDab = NCC[C@@H](N)C(=O)O; Dab = NCC[C@H](N)C(=O)O

How the values were obtained:
[1] = test system: cell wall biosynthesis (UDP-MurNAc-pentapeptide) in S. aureus USA300; assay: UDP-MurNAc-pentapeptide accumulation assay; type: cell-based, Staphylococcus aureus; settings: S. aureus cultures exposed at 1xMIC
Protocol: The effect of cilagicin on cell wall biosynthesis was investigated by tracking the accumulation UDP-MurNAc-pentapeptide in antibiotic treated cultures. Overnight S. aureus USA300 cultures were diluted in fresh LB broth and grown at 37° C. to an OD600 nm of 0.5. They were then treated with 130 μg/mL of chloramphenicol. After incubating at 37° C. for 15 minutes, 1 μg/mL of cilagicin was added. Vancomycin (10 μg/mL) and DMSO were used as positive and vehicle control, respectively. After an incubation of 60 mins, cells (0.5 mL) were harvested, and the cell pellet was resuspended in 30 μL ddH2O. The cell suspension was incubated in boiling water for 15 minutes and spun down at 15,000×g for 5 minutes. The supernatant was then analyzed by UPLC-DAD-MS (Acquity UPLC BEH C18, 2.1×50 mm, 1.7 μM, 130 Å, […] isocratic elution at 97% water:acetonitrile (ACN) for 1 minute, then from 97% to 5% water:ACN over 3 minutes, with constant 0.1% formic acid; negative ionization modes).

S. aureus = assay: Direct plating of S. aureus on cilagicin-containing agar plates (resistant colonies); type: cell-based, Staphylococcus aureus; settings: plating S. aureus directly on cilagicin-containing agar plates
S. aureus USA300 = type: cell-based, Staphylococcus aureus
Protocol: The effect of lipid II biosynthesis intermediates on cilagicin's antibacterial activity was evaluated using S. aureus USA300 and the general MIC assay methods described above with the following changes. Potential antagonizing compounds were mixed with cilagicin at a constant molar ratio of 5. Cilagicin mixed with solvent alone was used as a control. Premixed solutions were dried in vacuo for 2 hours to completely remove all organic solvent. They were then resuspended in LB broth and mixed with S. aureus. All assays were run in duplicate (n=2) and repeated two independent times (n=2).

Gram-positive pathogens = type: cell-based
Protocol: (§1) MIC assay were conducted using the protocol recommended by the Clinical and Laboratory Standards Institute.(37) Culture conditions (temperature, medium) are detailed in Table 3. All compounds were dissolved in sterile DMSO (ATCC, USA) to give a concentration of 6.4 mg/mL. Vancomycin hydrochloride was used as positive controls. Tested compounds were serially diluted across 96-well plates using a 2-fold serial dilution in a volume of 50 μL. An overnight culture of an assay strain was diluted 5,000-fold in fresh medium. 50 μL of this dilution was added into each well, giving a final volume of 100 μL in each well. Compounds were assayed at concentrations ranging from 64 μg/mL to 0.06 μg/mL. The top and bottom rows of each plate were filled with 100 μL of media to avoid edge effects. […] For Clostridium difficile plates were statically incubated under anaerobic conditions (Vinyl anaerobic chamber, 37° C., 5% H2, 5% CO2, 90% N2). For Streptococcus pneumoniae plates were statically incubated under aerobic conditions supplemented with 5% C02 (37° C.). All MICs were performed in technical duplicate (n=2) and repeated three independent times (n=3).

Acinetobacter baumannii = type: cell-based
Protocol: as §1

Streptococcus pyrogens = type: cell-based
Protocol: as §1

Enterococcus gallinarum = type: cell-based
Protocol: as §1

Enterococcus faecalis = type: cell-based
Protocol: as §1

Streptococcus pneumoniae = type: cell-based
Protocol: as §1

Streptococcus agalactiae = type: cell-based
Protocol: as §1

[2] = test system: Enterococcus casseliflavus; type: cell-based
Protocol: as §1

Enterobacter cloacae = type: cell-based
Protocol: as §1

Klebsiella pneumoniae = type: cell-based
Protocol: as §1

Enterococcus faecium = type: cell-based
Protocol: as §1

Staphylococcus aureus = type: cell-based; settings: S. aureus, presence versus absence of serum (10% serum)
Protocol: as §1

Bacillus subtilis = type: cell-based
Protocol: as §1

Pseudomonas aeruginosa = type: cell-based
Protocol: as §1

For CCCCCCCCCCCCCC(=O)N[C@H](CO)C(=O)N[C@@H]1C(=O)N[C@H](CCN)C(=O)N[C@@H](CC(=O)O)C(=O)NCC(=O)N[C@H](CC(N)=O)C(=O)N[C@H](CC(=O)O)C(=O)NCC(=O)N[C@@H](Cc2ccc(O)cc2)C(=O)N[C@@H](C(C)C)C(=O)N[C@@H](CCN)C(=O)N[C@@H](Cc2ccccc2)C(=O)O[C@@H]1C [Cilagicin] (Myristoyl-[dS]T[dDab]DG[dN][dD]GYV[Dab]F; ester 2-C), which “accumulation of UDP-MurNAc-pentapeptide (LCMS)” value [1] is on record?
The value was “obvious accumulation”.

And the “colonies that showed more than a 2-fold increase in MIC (2 μg/mL)” value (S. aureus)?
Its value is “never observed”.

What about the “molar ratio at which C55-P completely inhibited the bioactivity” value (S. aureus USA300; S. aureus USA300, C55-P) of the same compound?
The value was ~ 1.25.

And the “molar ratio at which C55-PP gave complete inhibition” value (S. aureus USA300; S. aureus USA300, C55-PP)?
Its value is ~ 2.5.

What about the “MIC in the presence of C55-P” value (S. aureus USA300; USA300) of the same compound?
The value was ≥ 64 µg/mL.

What about the MIC (Gram-positive pathogens) of the same compound?
Its MIC is 1 µg/mL (≈ 0.682 µM).

What about the MICs (Gram-positive pathogens) of the same compound?
The MICs was ≤ 0.25 µg/mL.

And the “minimum inhibitory concentrations (MIC)” value (Gram-positive pathogens)?
Its value is 0.125 to 2 µg/mL.

What about the “Cilagicin MIC” value (Acinetobacter baumannii) of the same compound?
The value was 8 µg/mL.

What about the MIC (Acinetobacter baumannii; A. baumannii (Table 5)) of the same compound?
The MIC was 8 µg/mL (≈ 5.45 µM).

What about the “Cilagicin MIC” value (Streptococcus pyrogens) of the same compound?
The value was 0.125 µg/mL.

And the MIC (Streptococcus pyrogens)?
The MIC was 0.125 µg/mL (≈ 0.0852 µM).

What about the “Cilagicin MIC” value (Enterococcus gallinarum) of the same compound?
Its value is 0.5 µg/mL.

What about the “Cilagicin MIC” value (Enterococcus faecalis) of the same compound?
Its value is 0.5 µg/mL.

What about the MIC (Streptococcus pneumoniae) of the same compound?
Its MIC is 0.25 µg/mL (≈ 0.17 µM).

What about the “Cilagicin MIC” value (Streptococcus agalactiae) of the same compound?
The value was 1 µg/mL.

What about the MIC (Streptococcus agalactiae) of the same compound?
The MIC was 1 µg/mL (≈ 0.682 µM).

And the “Cilagicin MIC” value [2]?
Its value is 0.125 µg/mL.

What about the “Cilagicin MIC” value (Enterobacter cloacae) of the same compound?
Its value is >64 µg/mL.

What about the “Cilagicin MIC” value (Klebsiella pneumoniae) of the same compound?
The value was >64 µg/mL.

And the “Cilagicin MIC” value (Enterococcus faecium)?
Its value is 0.5 µg/mL.

And the MIC (Enterococcus faecium)?
Its MIC is 0.5 µg/mL (≈ 0.341 µM).

What about the “antibacterial activity (MIC) in the presence of serum” value (Staphylococcus aureus) of the same compound?
The value was “significantly suppressed”.

What about the “Cilagicin MIC” value (Bacillus subtilis) of the same compound?
Its value is 2 µg/mL.

And the “Cilagicin MIC” value (Pseudomonas aeruginosa)?
Its value is >64 µg/mL.
